Reference: paper PMC11192711, “Automated radiosynthesis and preclinical evaluation of two new PSMA-617 derivatives radiolabelled via [^18F]AlF^2+ method” (EJNMMI Radiopharmacy and Chemistry, 2024)

Test system: LNCaP tumour-bearing NSG mice
Test: PET/CT in vivo biodistribution and tumour uptake in subcutaneous LNCaP prostate cancer xenograft model
Conditions: n = 4; for Bone (SUV mean) / Brain (SUV mean) / Colon (SUV mean) / Gall bladder (SUV mean) / Heart (SUV mean) / Kidney (SUV mean) / Liver (SUV mean) / Lung (SUV mean) / Muscle (SUV mean) / Salivary gland (SUV mean) / Small instestine (SUV mean): LNCaP NSG male mice, i.v., PET/CT; for ratio between tumour and muscle (tumour SUV max/muscle SUV mean) / uptake in the tumour expressed as SUV max: LNCaP tumour, NSG mice
Experimental: The uptake of [^18F]F-PSMA-1007 and [^18F]F-PSMA-617-NODA ([^18F]1) was compared in vivo in a xenograft model of human prostate cancer obtained using LNCaP cells which are PSMA positive, as confirmed by real time PCR-analysis (Additional file 1: S69A). LNCaP tumour-bearing NSG mice were injected i.v. with either [^18F]F-PSMA-1007 or [^18F]F-PSMA-617-NODA (~ 3.8 MBq/mouse, ~ 20 pmol for [^18F]F-PSMA-1007 and ~ 50 pmol [^18F]1). Radiotracer uptake was assessed after 10, 60 and 120 min post injection by whole-body PET/CT acquisitions.
Total body biodistribution of [^18F]F-PSMA-1007, [^18F]F-PSMA-617-NODA and [^18F]F-PSMA-617-RESCA was evaluated in vivo using imaging PET/CT. [^18F]F-PSMA-617-NODA uptake was compared to that of the [^18F]F-PSMA-1007 in a PSMA positive prostate tumour xenograft model (LNCaP). [^18F]F-PSMA-617-NODA and [^18F]F-PSMA-617-RESCA uptake were also evaluated using an orthotopic glioma model (Gli36ΔEGFR).
Animal experiments were carried out in compliance with institutional guidelines for the care and the use of experimental animals, which have been authorized by the Italian Ministry of Health (n° 378/2019-PR and 817/2021-PR). The animals were housed at constant temperature (23 °C) and relative humidity (40%) under a regular light/dark cycle with food and water available ad libitum. Seven to eight weeks old male NSG mice (Charles River Laboratories Italia s.r.l., Italy) were subcutaneously inoculated in the right flank with 5 × 10^6 of PSMA‐positive human prostate cancer cells (LNCaP) suspended in matrigel (1: 1, total volume 200 ul). The growth tumour was monitored periodically with calliper and tumour volume was calculated using the following formula: […]
When the tumour volume was about 230.8 ± 60.3 mm^3 (approximately 15 days after tumour cells inoculation), 4 animals performed an in vivo biodistribution of [^18F]F-PSMA-1007 and [^18F]F-PSMA-617-NODA, on successive but non-consecutive days, using PET/CT.
Mice were injected into a tail vein with 3.8 ± 0.1 MBq of [^18F]F-PSMA-1007, 4.0 ± 0.2 MBq of [^18F]F-PSMA-617-NODA ([^18F]1) and 3.8 ± 0.1 MBq of [^18F]F-PSMA-617-RESCA ([^18F]2), respectively.
Total body PET/CT acquisitions were performed using PET/CT tomographs dedicated to small animals, X-ß-CUBE (Molecubes, Gent, Belgium) after 10, 60 and 120 min from tracer injection. Each acquisition lasted 30 min and mice were maintained anesthetized (4% isoflurane in induction and 2% in maintenance in air) during acquisition.
Image quantification analysis was performed with PMOD 4.105 software (Zurich, Switzerland). Volumes of interest (VOIs) were drawn on peripheral organs (tumour, thoracic muscle, heart, liver, kidney, salivary glands, lung, small intestine, colon, bone, gall bladder) and on the healthy brain using CT images. For the glioma model, PET/CT images were co-registered to MRI images and two different VOIs were defined: (1) a control VOI covering the healthy left striatum (volume 4 mm^3) was drawn on the axial MR images, adjusted on the other imaging planes and then copied on the PET images of each mouse; (2) a second glioma-covering VOI was drawn in the tumour-affected brain hemisphere and centered on mice lesions.
For quantification, Standardized Uptake Value (SUV) was calculated according to the formula:
SUV = organ concentration activity [MBq/g]/(injected activity [MBq]/animal weight [g]).
The data were expressed as standardized-uptake-values (SUVmean and SUVmax) and as tumour-to-muscle (T/M) and tumour-to-blood (T/B) ratio in PCa model and as tumour-to-contralateral (T/Cl) ratio in glioma model.

SMILES: O=C(O)CC[C@H](NC(=O)N[C@@H](CCCCNC(=O)[C@H](Cc1ccc2ccccc2c1)NC(=O)c1ccc(CNC(=O)[C@H](CCC(=O)O)NC(=O)[C@H](CCC(=O)O)NC(=O)c2ccc([18F])nc2)cc1)C(=O)O)C(=O)O [[^18F]F-PSMA-1007, reference compound]
- Bone (SUV mean) (10 min p.i.): 0.36 ± 0.09
- Brain (SUV mean) (10 min p.i.): 0.12 ± 0.02
- Colon (SUV mean) (10 min p.i.): 0.35 ± 0.27
- Gall bladder (SUV mean) (10 min p.i.): 0.99 ± 0.40
- Heart (SUV mean) (10 min p.i.): 0.38 ± 0.09
- Kidney (SUV mean) (10 min p.i.): 9.55 ± 2.63
- Liver (SUV mean) (10 min p.i.): 0.50 ± 0.04
- Lung (SUV mean) (10 min p.i.): 0.46 ± 0.09
- Muscle (SUV mean) (10 min p.i.): 0.23 ± 0.03
- Salivary gland (SUV mean) (10 min p.i.): 1.40 ± 0.25
- Small instestine (SUV mean) (10 min p.i.): 0.60 ± 0.05
- Bone (SUV mean) (60 min p.i.): 0.26 ± 0.09
- Brain (SUV mean) (60 min p.i.): 0.09 ± 0.03
- Colon (SUV mean) (60 min p.i.): 0.28 ± 0.14
- Gall bladder (SUV mean) (60 min p.i.): 1.02 ± 0.43
- Heart (SUV mean) (60 min p.i.): 0.28 ± 0.06
- Kidney (SUV mean) (60 min p.i.): 12.04 ± 2.49
- Liver (SUV mean) (60 min p.i.): 0.33 ± 0.06
- Lung (SUV mean) (60 min p.i.): 0.40 ± 0.16
- Muscle (SUV mean) (60 min p.i.): 0.20 ± 0.04
- Salivary gland (SUV mean) (60 min p.i.): 1.40 ± 0.20
- Small instestine (SUV mean) (60 min p.i.): 0.49 ± 0.12
- Bone (SUV mean) (120 min p.i.): 0.21 ± 0.08
- Brain (SUV mean) (120 min p.i.): 0.10 ± 0.03
- Colon (SUV mean) (120 min p.i.): 0.26 ± 0.08
- Gall bladder (SUV mean) (120 min p.i.): 0.75 ± 0.48
- Heart (SUV mean) (120 min p.i.): 0.24 ± 0.03
- Kidney (SUV mean) (120 min p.i.): 14.49 ± 1.41
- Liver (SUV mean) (120 min p.i.): 0.21 ± 0.02
- Lung (SUV mean) (120 min p.i.): 0.31 ± 0.07
- Muscle (SUV mean) (120 min p.i.): 0.15 ± 0.05
- Salivary gland (SUV mean) (120 min p.i.): 1.58 ± 0.12
- Small instestine (SUV mean) (120 min p.i.): 0.30 ± 0.07
- ratio between tumour and muscle (tumour SUV max/muscle SUV mean) (60 min p.i.): 7.46 ± 1.55
- uptake in the tumour expressed as SUV max (60 min p.i.): 1.48 ± 0.29
- ratio between tumour and muscle (tumour SUV max/muscle SUV mean) (120 min p.i.): 11.99 ± 6.16
- uptake in the tumour expressed as SUV max (120 min p.i.): 1.60 ± 0.44
